Columns and labels:
AIK = molecular target: T1, AIK (Homo sapiens, UniProt O14965); experiment: Inhibition of AIK, Direct Fluorescence Polarization (IMAP); format: biochemical; conditions: FP assay, 2.5 uM ATP, 2.5 nM AIK
T1 sequence (O14965 1-403): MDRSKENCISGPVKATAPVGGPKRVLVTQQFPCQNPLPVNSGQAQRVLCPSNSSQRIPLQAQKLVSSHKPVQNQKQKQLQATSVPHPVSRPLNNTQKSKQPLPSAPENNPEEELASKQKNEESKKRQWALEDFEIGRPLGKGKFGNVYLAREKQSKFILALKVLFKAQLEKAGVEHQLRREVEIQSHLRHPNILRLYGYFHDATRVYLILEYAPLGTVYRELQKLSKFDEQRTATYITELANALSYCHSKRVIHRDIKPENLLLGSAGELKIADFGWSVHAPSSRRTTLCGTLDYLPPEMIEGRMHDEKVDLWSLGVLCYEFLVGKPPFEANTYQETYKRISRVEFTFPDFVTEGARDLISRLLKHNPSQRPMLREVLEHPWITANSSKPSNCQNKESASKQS
Experimental: The inhibitory properties of compounds relative to AIK may be determined by the Direct Fluorescence Polarization detection method (FP) using a Greiner small volume black 384-well-plate format under the following reaction conditions: 50 mM Hepes pH 7.3, 10 mM MgCl2, 10 mM NaCl, 1 mM DTT, 0.01% Brij35, 100 nM Fluorescein-LRRASLG peptide (provided by SYNPEP), 5% DMSO, 2.5 uM ATP. Detection of the reaction product is performed by addition of IMAP binding reagent (Molecular Devices). Reaction product may be determined quantitatively by FP using an Analyst HT plate reader (Molecular Devices) with an excitation wavelength at 485 nm and emission at 530 nm and using a Fluorescein 505 dichroic mirror.
The assay reaction may be initiated as follows: 2 ul of (3×) 300 nM Fl-Peptide/7.5 uM ATP was added to each well of the plate, followed by the addition of 2 ul of (3×) inhibitor (2.5 fold serial dilutions for 11 data points for each inhibitor) containing 15% DMSO. 2 ul of (3×) 7.5 nM AIK solution may be added to initiate the reaction (final enzyme concentration was 2.5 nM for AIK). […] Fluorescence polarization readings of the resulting reaction mixtures may be measured after a 60-minute incubation at room temperature.
IC50 values may be calculated by non-linear curve fitting of the compound concentrations and fluorescent polarization values to the standard IC50 equation.

c-KIT = c-KIT (Homo sapiens, UniProt P10721); experiment: Inhibition of c-KIT, TR-FRET; format: biochemical; conditions: TR-FRET assay, 100 uM ATP, 0.13 nM c-Kit
c-KIT, sequence (P10721 26-976): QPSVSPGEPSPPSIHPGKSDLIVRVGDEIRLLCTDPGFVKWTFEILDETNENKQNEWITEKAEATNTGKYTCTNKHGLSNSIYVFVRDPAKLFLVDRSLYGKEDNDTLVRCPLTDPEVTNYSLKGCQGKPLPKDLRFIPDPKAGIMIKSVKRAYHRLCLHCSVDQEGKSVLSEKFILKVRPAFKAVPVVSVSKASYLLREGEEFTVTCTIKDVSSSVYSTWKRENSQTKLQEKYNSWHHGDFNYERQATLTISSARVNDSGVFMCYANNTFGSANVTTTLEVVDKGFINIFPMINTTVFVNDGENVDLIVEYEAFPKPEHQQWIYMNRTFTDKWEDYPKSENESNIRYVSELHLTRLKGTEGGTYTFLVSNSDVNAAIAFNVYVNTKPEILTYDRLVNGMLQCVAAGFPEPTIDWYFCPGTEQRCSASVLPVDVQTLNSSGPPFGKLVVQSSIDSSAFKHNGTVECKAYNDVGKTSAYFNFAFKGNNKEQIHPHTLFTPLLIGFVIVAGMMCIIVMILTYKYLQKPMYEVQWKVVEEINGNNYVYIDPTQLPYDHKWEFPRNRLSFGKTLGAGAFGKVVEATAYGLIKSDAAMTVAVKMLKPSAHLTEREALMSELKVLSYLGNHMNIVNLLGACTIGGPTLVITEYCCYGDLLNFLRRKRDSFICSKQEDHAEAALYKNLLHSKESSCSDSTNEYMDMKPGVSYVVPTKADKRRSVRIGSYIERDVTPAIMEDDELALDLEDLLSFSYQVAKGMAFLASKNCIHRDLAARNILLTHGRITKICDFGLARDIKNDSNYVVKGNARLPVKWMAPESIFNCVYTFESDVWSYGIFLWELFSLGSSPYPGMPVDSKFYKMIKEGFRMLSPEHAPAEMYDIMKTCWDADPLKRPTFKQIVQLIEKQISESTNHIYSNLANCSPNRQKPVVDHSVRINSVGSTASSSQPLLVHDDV

IC50 (AIK): < 100 µM
IC50 (c-KIT): < 100 µM
Compound: Cc1cc(-c2c(O)[nH]c3ccccc23)nc(N)n1 [Example 1, 3-(2-Amino-6-methyl-pyrimidin-4-yl)-1H-indol-2-ol]

Reference: US20080153869A1, “Kinase Inhibitors” (priority 2004, published 2008)
